# What was measured:
# [1] = system: imidazole hairpin 3a; experiment: Fluorescein release from fluorescein dipivalate ODNs by imidazole hairpin; format: biochemical; conditions: 10 mM ODN, 5 mM hairpin 3a, 0.1 M phosphate pH 7.0, 20° C.; relative to 7a
# Excerpt: FIG. 11. […] For comparison, the release of fluorescein from the fluorescein tetramer 7aby imidazole at 0.1 M imidazole alone is also shown.
# Because of the strong fluorescence and widespread use of fluorescein as a fluorescent probe, the rate of fluorescein release by imidazole catalyzed hydrolysis of diacetyl fluorescein was investigated. Diacetylated fluoresceins are non-fluorescent, but upon hydrolysis of the acyl groups become highly fluorescent. Attempts to attach the N-hydroxysuccinimide derivative of diacetylcarboxyfluorescein via amide bond formation with the 3′-amino linked oligodeoxynucleotide 5 (FIG. 4) failed due to the high pH required for the reaction which led to the premature hydrolysis of the acetate groups. Attempts to conjugate 5-chloromethyl fluorescein diacetate with a 3′-phosphorothioate labeled ODN also failed at pH 7. […] The TMs of 7a-cwere estimated from thermodynamic parameters to be -20, 19, and 41° C. under the conditions of the experiment and have equilibrium dissociation constants of 3.4 mM, 8.1 mM, and 14 nM.
# [2] = system: E. coil 5S rRNA; experiment: Hydroxycoumarin release from PNA constructs on 5S rRNA trigger; format: biochemical, E. coli; conditions: unoptimized test
# Excerpt: FIG. 16. A series of PNA constructs was synthesized to target one of the hairpin loops of commercially available E. coil 5S rRNA (SEQ ID NO:11) as the nucleic acid trigger. This rRNA has been thoroughly characterized by enzymatic and chemical probes, and is therefore a suitable initial model for studying and optimizing various catalytic drug releasing motifs in folded […].
# FIG. 19. […] In contrast, there was no difference in the rate of release of hydroxycoumarin from the 6-mer conjugate in the presence or absence of the histidine, or the catalytic component. (not shown).
# [3] = system: hairpin enzyme 3a; experiment: Two component hairpin system: p-nitrophenolate / 7-hydroxycoumarin release from 8-mer prodrugs; format: biochemical; conditions: for Enhancement: (kcat/KM)/kIm
# Description: Initial velocities of the reaction, obtained for each substrate concentration, were fitted to the Michaelis-Menten equation by a non-linear least squares method using KaleidaGraph software. The inhibition constant KI was determined in the presence of 25 mM 7d ([…]) in 10 mM sodium phosphate buffer pH 7.0 containing 1.0 M NaCl by the plotting 1/v vs. 1/[S] and calculating KI from the slope of the line according following equation:
# (§1) [formula] where v is the velocity of the reaction, Vmax is the maximum velocity, KM is the substrate concentration at half maximal reaction rate, [I] is the inhibitor concentration, and [S] is the substrate concentration. Kinetics of p-nitrophenol and 7-hydroxycoumarin Release by Imidazole Alone
# [4] = system: 15-mer catalytic component 3b and 23-mer template 4; experiment: Three component system: release from 8-mer prodrug with imidazole 15-mer and triggering 23-mer; format: biochemical
# Description: For typical assays, pNP-8-mer 1 (SEQ ID NO:1) and Im-15-mer 2 were incubated in 10 mM sodium phosphate, pH 7.0, which contained 0.1 M or 1.0 M NaCl in an ultra-micro ([…]) UV cell (Varian). The reaction temperature was maintained at 20° C., and the production of p-nitrophenolate was monitored by UV absorbance at 400 nm (e400=6.26′10^3). Initial velocities of the reaction, obtained for each substrate concentration, were fitted to the Michaelis-Menten equation by a non-linear least squares method with KaleidaGraph software. The inhibition constant KI was determined in the presence of 20 mM d([…]) in 10 mM sodium phosphate buffer pH 7.0 containing 1.0 M NaCl by the plotting 1/v vs. 1/[S] and calculating KI from the slope of the line according following equation:
# [formula] where v is the velocity of the reaction, Vmax is the maximum velocity, KM is the substrate concentration at half maximal reaction rate, [I] is the inhibitor concentration, and [S] is the substrate concentration. For comparison purposes, the reaction rate constant kIm for the imidazole catalyzed hydrolysis of N-maleoyl-D-valine p-nitrophenyl ester 8 was determined in imidazole buffer at pH 7.0, 1.0 M NaCl at 20° C. as previously described. […]
# as §1
# [5] = Imidazole catalyzed hydrolysis of esters (imidazole alone); format: physicochemical; conditions: 20° C.
# Description: For comparison purposes, the rate constant kIm for the imidazole catalyzed hydrolysis of the various esters were determined in imidazole buffer at pH 7.0, 0.5 M NaCl at 20° C. as previously described. The imidazole buffers were prepared in 0.5 M NaCl, and adjusted to pH 7 by addition of 1 M HCl. […] The pseudo first-order rate constant for each concentration of imidazole was obtained by linear least squares fitting of In(A¥-A) or In(F¥-F) vs. time. The rate constants were then plotted against total imidazole concentration to get ko, the first order rate constant for the uncatalyzed hydrolysis reaction, and kIm, the second-order rate constant for catalysis by imidazole buffer.
# [6] = Hydrolysis of esters in human serum
# Description: In a typical run, 3 mL of coumarin ester solution (7 mM in acetonitrile) was added to 400 mL of Human serum, pH 8.3 (Innovative Research Inc.) in cuvette. The cuvette was capped, inverted several times for thorough mixing, placed in a cell block and recording was begun.
# [7] = 1 M NaCl; cited from earlier work
compound,measurement,setting,value
"7a: 4-mer ODN derivatized with bis-pivaloyl fluorescein (SEQ ID NO:7) (GTCA; DNA, backbone not given here; further chemistry not fully specified)",relative initial rates of fluorescein release,[1],1
"7c: 8-mer ODN derivatized with bis-pivaloyl fluorescein (SEQ ID NO:9) (TCCTGTCA; DNA, backbone not given here; further chemistry not fully specified)",relative initial rates of fluorescein release,[1],493
"8-mer PNA construct: hydroxycoumarin-bearing 8-mer PNA (SEQ ID NO:15) targeting E. coli 5S rRNA hairpin loop (CTGGGGTA; all peptide nucleic acid (PNA); hydroxycoumarin attached, position not given here)","rate of hydroxycoumarin release, all three components vs absence of the entire catalytic PNA",[2],4 fold
same,"rate of hydroxycoumarin release, all three components vs all three minus the histidine",[2],2 fold
"15a (SEQ ID NO:10) (X=C): mismatched b-alanine p-nitrophenyl ester 8-mer prodrug, G to C transversion (DNA TCCTNTCA; b-alanine p-nitrophenyl ester prodrug, chemistry not fully specified)","difference in initial rates of p-nitrophenolate release, matched 15a (X=G) vs single CC mismatch",[3]; 1 M NaCl,11 fold
same,increase in Kd of mismatch substrate needed to account for rate difference,[3]; rates proportional to (Kd+[S])^−1,15 fold
"15a (X = G): matched b-alanine p-nitrophenyl ester 8-mer ODN prodrug (SEQ ID NO:10) (TCCTNTCA; beta-alanine p-nitrophenyl ester prodrug, chemistry not fully specified)",time in which four turnovers are complete,"[3]; 20 mM prodrug, 5 mM hairpin 3a, 1 M NaCl, pH 7, 20° C.",about 4 h
same,kcat,"[3]; 1.0 M NaCl, 10 mM phosphate buffer pH 7.0, 20° C., listed as 15a",0.0029 s⁻¹
same,Enhancement,[3]; 0.1 M NaCl,281
same,Enhancement,[3]; 1.0 M NaCl,446
same,koff needed to account for observed KM,[3]; assuming on rate 10^6 M^−1s^−1,50 s⁻¹
same,rate enhancement of ester hydrolysis relative to imidazole alone,[3]; kcat/KM compared with kIm,446 fold
"16a: D-valine p-nitrophenyl ester linked to the 3'-end of 8-mer ODN d(TCCTGTCA) (DNA, backbone not given here; further chemistry not fully specified)",p-nitrophenol formed during the course of the reaction,[4]; 5 mM catalytic ODN and 5 mM triggering ODN,about 15 mM
same,release more efficient with fully matched than mismatched template,"[4]; 0.1 M NaCl, 20° C.",7.5 fold
same,"difference in rate, matched vs mismatched template",[4]; 1 M NaCl,1.4 fold
same,Vmax,"[4]; 1 M NaCl, pH 7, 20° C.",0.09 mM/min
same,kcat,"[4]; 1 M NaCl, pH 7, 20° C.",0.018 min⁻¹
same,initial rate of p-nitrophenol release,"[4]; 15-mer lacking an appended imidazole group, 1 M NaCl, pH 7, 20° C.",0.0008 mM/min
same,rate acceleration over hydrolysis catalyzed by free imidazole,[4]; (kcat/KM)/kIm,976 fold
same,Enhancement,"[4]; (kcat/KM)/kIm, 1.0 M NaCl",974
same,initial rate of p-nitrophenol release,"[4]; absence of the 23-mer or Im-15-mer, 1 M NaCl, pH 7, 20° C.",0.002 mM/min
same,initial rate of p-nitrophenol release,"[4]; all three components, 1 M NaCl, pH 7, 20° C.",0.057 mM/min
same,initial rate of release of p-nitrophenol,"[4]; fully matched 23-mer, 0.1 M NaCl, 20° C.",0.028 mM/min
same,initial rate of release of p-nitrophenol,"[4]; mismatched 23-mer (T at position 20 replaced with C), 0.1 M NaCl, 20° C.",0.0037 mM/min
same,drop in kcat relative to b-alanine ester 15a,[3]; 1.0 M NaCl,8.3 fold
same,Enhancement,[3]; 1.0 M NaCl,429
"CC(C)[C@H](C(=O)Oc1ccc([N+](=O)[O-])cc1)N1C(=O)C=CC1=O [11a, N-maleoyl-D-valine p-nitrophenyl ester]",kIm,"[5]; imidazole buffer pH 7.0, 1.0 M NaCl",0.014 M⁻¹ s⁻¹
"CC(=O)Oc1ccc([N+](=O)[O-])cc1 [p-nitrophenylacetate, reference compound]",klm,"[5]; imidazole catalyzed rate constant, pH 7, 0.5 M NaCl",0.13 M⁻¹ s⁻¹
N-maleoyl-b-alanine-coumarin ester [9c],"stability to hydrolysis by human serum, compared",[6],"more stable than the CBZ-glycine ester, but much less stable than the maleoyl-D-valine esters"
"d(GGAGCTTGCTCC): hairpin ODN of the literature (SEQ ID NO:18) (DNA, backbone not given here; hairpin)",TM reported,[7],71 °C

# Source: patent publication US7445891B2, “Nucleic acid triggered catalytic drug and probe release” (priority 2001, dated 2008)
